The values below come from patent US9637472B2, “Substituted 6,5-fused bicyclic heteroaryl compounds” (Epizyme, Inc., priority 2011, dated 2017).

By IC50 is commonly meant the point on the concentration scale where inhibition reaches its midpoint.

In the experiment the target is EZH2 (Homo sapiens (Human), UniProt Q15910). Nature of the experiment: PRC2 enzyme assay on peptide substrates. The format is biochemical. Conditions: PRC2 enzyme assays on peptide substrates; 4 nM enzyme, 30 min preincubation at 25° C.; read-out: EZH2 IC50.
Chain of EZH2 (Q15910 other isoform, or with tags, fused parts or gaps): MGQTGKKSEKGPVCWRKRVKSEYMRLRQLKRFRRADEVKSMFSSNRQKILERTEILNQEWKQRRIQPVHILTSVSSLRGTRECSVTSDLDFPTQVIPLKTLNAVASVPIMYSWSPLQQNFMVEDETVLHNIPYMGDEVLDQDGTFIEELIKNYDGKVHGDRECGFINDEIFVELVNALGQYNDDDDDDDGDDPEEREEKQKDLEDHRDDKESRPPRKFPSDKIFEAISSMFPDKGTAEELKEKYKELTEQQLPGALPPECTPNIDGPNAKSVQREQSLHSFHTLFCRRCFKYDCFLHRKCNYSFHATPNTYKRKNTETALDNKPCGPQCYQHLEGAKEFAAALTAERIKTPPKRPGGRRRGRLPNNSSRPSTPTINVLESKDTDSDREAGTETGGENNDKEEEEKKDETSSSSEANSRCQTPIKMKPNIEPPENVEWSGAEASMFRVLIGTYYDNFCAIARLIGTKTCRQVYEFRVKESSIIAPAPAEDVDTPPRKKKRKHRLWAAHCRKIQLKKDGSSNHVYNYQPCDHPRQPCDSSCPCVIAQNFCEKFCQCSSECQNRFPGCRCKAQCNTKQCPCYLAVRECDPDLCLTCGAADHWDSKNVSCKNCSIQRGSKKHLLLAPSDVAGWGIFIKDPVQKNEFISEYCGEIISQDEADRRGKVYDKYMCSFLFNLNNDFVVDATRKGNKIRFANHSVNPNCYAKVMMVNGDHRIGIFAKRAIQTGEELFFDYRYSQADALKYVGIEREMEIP
Chain of EZH2 (O75530 whole entry partner): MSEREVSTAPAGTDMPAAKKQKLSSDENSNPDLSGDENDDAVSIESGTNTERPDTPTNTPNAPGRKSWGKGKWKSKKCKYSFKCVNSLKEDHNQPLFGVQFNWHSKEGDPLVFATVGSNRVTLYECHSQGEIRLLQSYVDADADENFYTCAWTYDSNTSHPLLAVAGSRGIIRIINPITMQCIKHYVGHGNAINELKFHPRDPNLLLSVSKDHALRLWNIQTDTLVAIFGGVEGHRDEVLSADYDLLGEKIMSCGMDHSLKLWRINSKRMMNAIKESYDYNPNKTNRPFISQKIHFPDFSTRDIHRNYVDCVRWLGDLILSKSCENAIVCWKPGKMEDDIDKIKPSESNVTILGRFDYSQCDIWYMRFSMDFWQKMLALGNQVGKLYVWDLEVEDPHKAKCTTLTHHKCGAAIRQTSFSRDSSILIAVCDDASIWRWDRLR
Chain of EZH2 (Q15022 whole entry partner): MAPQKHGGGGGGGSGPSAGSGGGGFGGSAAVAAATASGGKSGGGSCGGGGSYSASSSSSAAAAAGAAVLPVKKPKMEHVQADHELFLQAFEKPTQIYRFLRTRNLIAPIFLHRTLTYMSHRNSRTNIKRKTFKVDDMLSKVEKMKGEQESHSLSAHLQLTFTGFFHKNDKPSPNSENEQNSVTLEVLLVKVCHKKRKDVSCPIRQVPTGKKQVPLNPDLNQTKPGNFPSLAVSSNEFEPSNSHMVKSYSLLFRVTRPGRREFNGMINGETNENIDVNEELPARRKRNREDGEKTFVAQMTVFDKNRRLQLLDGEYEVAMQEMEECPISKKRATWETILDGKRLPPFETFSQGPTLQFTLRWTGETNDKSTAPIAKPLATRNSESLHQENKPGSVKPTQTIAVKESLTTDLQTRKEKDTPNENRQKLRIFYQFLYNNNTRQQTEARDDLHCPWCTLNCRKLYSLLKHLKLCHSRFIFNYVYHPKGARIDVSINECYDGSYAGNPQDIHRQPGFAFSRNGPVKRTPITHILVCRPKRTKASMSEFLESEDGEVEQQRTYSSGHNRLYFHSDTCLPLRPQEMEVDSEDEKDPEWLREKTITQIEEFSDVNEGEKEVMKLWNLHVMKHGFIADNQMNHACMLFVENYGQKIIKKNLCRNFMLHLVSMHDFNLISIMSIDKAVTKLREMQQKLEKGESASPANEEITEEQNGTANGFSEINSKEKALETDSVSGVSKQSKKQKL
Chain of EZH2 (Q09028 whole entry partner): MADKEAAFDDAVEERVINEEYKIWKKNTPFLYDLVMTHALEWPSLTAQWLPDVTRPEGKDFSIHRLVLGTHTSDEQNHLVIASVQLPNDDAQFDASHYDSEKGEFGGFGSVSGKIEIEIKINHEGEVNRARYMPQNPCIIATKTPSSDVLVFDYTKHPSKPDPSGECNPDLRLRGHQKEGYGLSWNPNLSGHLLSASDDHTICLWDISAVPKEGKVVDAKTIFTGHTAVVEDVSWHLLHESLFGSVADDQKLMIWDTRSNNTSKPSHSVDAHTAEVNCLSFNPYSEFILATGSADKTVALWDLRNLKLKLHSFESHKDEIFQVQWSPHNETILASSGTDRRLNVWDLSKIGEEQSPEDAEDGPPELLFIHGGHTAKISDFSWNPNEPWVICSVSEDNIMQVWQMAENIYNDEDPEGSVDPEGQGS
For the molecule `Cc1cc(C)c(CNC(=O)c2cc(-c3cccnc3)cc3c2cnn3C2CCCC2)c(=O)[nH]1` [Compound C-21], the IC50 is less than 300 nM.
In the case of `Cc1cc(C)c(CNC(=O)c2cc(-c3cccc(COCCN(C)C)c3)cc3c2cnn3C2CCCC2)c(=O)[nH]1` [Compound C-22] it was less than 300 nM.
In the case of `Cc1cc(C)c(CNC(=O)c2cc(-c3cccc(COCCN)c3)cc3c2cnn3C2CCCC2)c(=O)[nH]1` [Compound C-23] it was less than 300 nM; in that of `Cc1cc(C)c(CNC(=O)c2cc(-c3cccc(CN4CCN(C)CC4)c3)cc3c2cnn3C(C)C)c(=O)[nH]1` [Compound C-24], less than 300 nM.
As for `Cc1cc(C)c(CNC(=O)c2cc(-c3ccc(CN4CCNC(=O)C4)cc3)cc3c2cnn3C2CCCC2)c(=O)[nH]1` [Compound C-25], the figure is less than 300 nM; as for `Cc1cc(CN(C)C)c(CNC(=O)c2cc(-c3ccc(CN4CCOCC4)cc3)cc3c2cnn3C2CCCC2)c(=O)[nH]1` [Compound C-26], less than 300 nM; as for `CCOc1ccc(S(=O)(=O)N2CCN(C)CC2)cc1-c1cc(C(=O)NCc2c(C)cc(C)[nH]c2=O)c2cnn(C3CCCC3)c2c1` [Compound C-27], less than 300 nM.
Take `Cc1cc(C)c(CNC(=O)c2cc(-c3ccc(CN4CCOCC4)c(Cl)c3)cc3c2cnn3C2CCCC2)c(=O)[nH]1` [Compound C-28]: the IC50 is less than 300 nM.
As for `Cc1cc(C)c(CNC(=O)c2cc(-c3cccc(CN(C)CCO)c3)cc3c2cnn3C2CCCC2)c(=O)[nH]1` [Compound C-29], the figure is less than 300 nM.
As for `Cc1cc(C)c(CNC(=O)c2cc(-c3cnc(N)nc3)cc3c2cnn3C2CCCC2)c(=O)[nH]1` [Compound C-30], the figure is less than 300 nM; as for `Cc1cc(C)c(CNC(=O)c2cc(-c3ccc(CN(C)C)cc3)cc3c2cnn3C2CCN(C(=O)C(C)(C)C)CC2)c(=O)[nH]1` [Compound C-31], less than 300 nM; as for `Cc1cc(C)c(CNC(=O)c2cc(-c3ccc(CN4CCOCC4)cc3Cl)cc3c2cnn3C2CCCC2)c(=O)[nH]1` [Compound C-32], less than 300 nM.
In the case of `Cc1cc(C)c(CNC(=O)c2cc(-c3cnn(CCN4CCOCC4)c3)cc3c2cnn3C2CCCC2)c(=O)[nH]1` [Compound C-33] it was less than 300 nM; in that of `Cc1cc(C)c(CNC(=O)c2cc(-c3cnn(CCN4CCOCC4)c3)cc3c2cnn3C2CCN(C(=O)C(C)(C)C)CC2)c(=O)[nH]1` [Compound C-34], less than 300 nM.
In the case of `Cc1cc(C)c(CNC(=O)c2cc(-c3ccc(OCCCN(C)C)cc3)cc3c2cnn3C2CCCC2)c(=O)[nH]1` [Compound C-35], the IC50 was less than 300 nM.
As for `Cc1cc(C)c(CNC(=O)c2cc(C3=CC(C)(C)NC(C)(C)C3)cc3c2cnn3C2CCCC2)c(=O)[nH]1` [Compound D-2, 1-cyclopentyl-N-((4,6-dimethyl-2-oxo-1,2-dihydropyridin-3-yl)methyl)-6-(2,2,6,6-tetramethyl-1,2,3,6-tetrahydropyridin-4-yl)-1H-indazole-4-carboxamide], the figure is less than 300 nM.
In the case of `Cc1cc(C)c(CNC(=O)c2cc(C3CC(C)(C)NC(C)(C)C3)cc3c2cnn3C2CCCC2)c(=O)[nH]1` [Compound D-3, 1-cyclopentyl-N-((4,6-dimethyl-2-oxo-1,2-dihydropyridin-3-yl)methyl)-6-(2,2,6,6-tetramethylpiperidin-4-yl)-1H-indazole-4-carboxamide] it was less than 300 nM.
Consider `CC(=O)N1CC=C(c2cc(C(=O)NCc3c(C)cc(C)[nH]c3=O)c3cnn(C4CCCC4)c3c2)CC1` [Compound D-4, 6-(1-acetyl-1,2,3,6-tetrahydropyridin-4-yl)-1-cyclopentyl-N-((4,6-dimethyl-2-oxo-1,2-dihydropyridin-3-yl)methyl)-1H-indazole-4-carboxamide], for which the IC50 was less than 300 nM.
Regarding `Cc1cc(C)c(CNC(=O)c2cc(C3=CCN(C(=O)C4CCN(C)CC4)CC3)cc3c2cnn3C2CCCC2)c(=O)[nH]1` [Compound D-5, 1-cyclopentyl-N-((4,6-dimethyl-2-oxo-1,2-dihydropyridin-3-yl)methyl)-6-(1-(1-methylpiperidine-4-carbonyl)-1,2,3,6-tetrahydropyridin-4-yl)-1H-indazole-4-carboxamide], the IC50 is less than 300 nM.
In the case of `Cc1cc(C)c(CNC(=O)c2cc(CN3CCN(C)CC3)cc3c2cnn3C2CCCC2)c(=O)[nH]1` [Compound D-7] it was less than 300 nM.
As for `Cc1cc(C)c(CNC(=O)c2cc(CO)cc3c2cnn3C2CCCC2)c(=O)[nH]1` [Compound D-8, 1-cyclopentyl-N-((4,6-dimethyl-2-oxo-1,2-dihydropyridin-3-yl)methyl)-6-(hydroxymethyl)-1H-indazole-4-carboxamide], the figure is 300 to 1000 nM; as for `Cc1cc(C)c(CNC(=O)c2cc(Cl)cc3c2cnn3C2CCCC2)c(=O)[nH]1` [Compound D-10, 6-chloro-1-cyclopentyl-N-((4,6-dimethyl-2-oxo-1,2-dihydropyridin-3-yl)methyl)-1H-indazole-4-carboxamide], less than 300 nM.
Turning to `Cc1cc(C)c(CNC(=O)c2cc(C(F)(F)F)cc3c2cnn3C2CCCC2)c(=O)[nH]1` [Compound D-11, 1-cyclopentyl-N-((4,6-dimethyl-2-oxo-1,2-dihydropyridin-3-yl)methyl)-6-(trifluoromethyl)-1H-indazole-4-carboxamide], the IC50 lay within 300 to 1000 nM.
As to `Cc1cc(C)c(CNC(=O)c2cc(Br)cc3c2cnn3C2CCN(C(=O)OC(C)(C)C)CC2)c(=O)[nH]1` [Compound D-12, tert-butyl 4-(6-bromo-4-(((4,6-dimethyl-2-oxo-1,2-dihydropyridin-3-yl)methyl)carbamoyl)-1H-indazol-1-yl)piperidine-1-carboxylate], the IC50 was less than 300 nM.
In the case of `Cc1cc(C)c(CNC(=O)c2cc(Br)cc3c2cnn3C2CCN(C(=O)C(C)(C)C)CC2)c(=O)[nH]1` [Compound D-13] it was less than 300 nM.
As to `Cc1cc(C)c(CNC(=O)c2cc(Br)cc3c2cnn3C2CCN(C(=O)C3CNC3)CC2)c(=O)[nH]1` [Compound D-14, 1-(1-(azetidine-3-carbonyl)piperidin-4-yl)-6-bromo-N-((4,6-dimethyl-2-oxo-1,2-dihydropyridin-3-yl)methyl)-1H-indazole-4-carboxamide], the IC50 is less than 300 nM.
As for `Cc1cc(C)c(CNC(=O)c2cc(Br)cc3c2cnn3C2CCN(Cc3ccccc3)CC2)c(=O)[nH]1` [Compound D-15, 1-(1-benzylpiperidin-4-yl)-6-bromo-N-((4,6-dimethyl-2-oxo-1,2-dihydropyridin-3-yl)methyl)-1H-indazole-4-carboxamide], the figure is 300 to 1000 nM.
Consider `Cc1cc(C)c(CNC(=O)c2cc(Br)cc3c2cnn3C2CCN(C3CCN(C)CC3)CC2)c(=O)[nH]1` [Compound D-16, 6-bromo-N-((4,6-dimethyl-2-oxo-1,2-dihydropyridin-3-yl)methyl)-1-(1′-methyl-[1,4′-bipiperidin]-4-yl)-1H-indazole-4-carboxamide], for which the IC50 was less than 300 nM.
Regarding `Cc1cc(CN(C)C)c(CNC(=O)c2cc(Br)cc3c2cnn3C2CCCC2)c(=O)[nH]1` [Compound D-17, 6-bromo-1-cyclopentyl-N-((4-((dimethylamino)methyl)-6-methyl-2-oxo-1,2-dihydropyridin-3-yl)methyl)-1H-indazole-4-carboxamide], the IC50 was less than 300 nM.
As for `Cc1cc(C)c(CNC(=O)c2cc(C(C)C)cc3c2cnn3C2CCCC2)c(=O)[nH]1` [Compound D-20, 1-cyclopentyl-N-((4,6-dimethyl-2-oxo-1,2-dihydropyridin-3-yl)methyl)-6-isopropyl-1H-indazole-4-carboxamide], the figure is 300 to 1000 nM; as for `Cc1cc(CN2CCC[C@@H]2C(N)=O)c(CNC(=O)c2cc(Br)cc3c2cnn3C2CCCC2)c(=O)[nH]1` [Compound D-22], 1000 to 3000 nM; as for `Cc1cc(C)c(CNC(=O)c2cc(C(F)(F)F)cc3c2cnn3C2CCN(C(=O)C(C)(C)C)CC2)c(=O)[nH]1` [Compound D-23], less than 300 nM.
In the case of `Cc1cc(C)c(CNC(=O)c2cc(Cl)cc3c2cnn3C2CCN(C(=O)C(C)(C)C)CC2)c(=O)[nH]1` [Compound D-24] it was less than 300 nM.
For `Cc1cc(C)c(CNC(=O)c2cc(C3=CC(C)(C)NC(C)(C)C3)cc3c2cnn3C2CCN(C(=O)C(C)(C)C)CC2)c(=O)[nH]1` [Compound D-25], the IC50 is less than 300 nM.
In the case of `Cc1cc(C)c(CNC(=O)c2cc(Br)cc3c2cnn3C2CCN(C(=O)C3CCCC3)CC2)c(=O)[nH]1` [Compound D-26] it was 300 to 1000 nM.
As for `Cc1cc(C)c(CNC(=O)c2cc(Br)cc3c2cnn3C2CCN(C(=O)C3CCCCC3)CC2)c(=O)[nH]1` [Compound D-27], the figure is 300 to 1000 nM.
As for `Cc1cc(C)c(CNC(=O)c2cc(Br)cc3c2cnn3C2CCN(C(=O)C3CCOCC3)CC2)c(=O)[nH]1` [Compound D-28], the figure is 300 to 1000 nM; as for `Cc1cc(C)c(CNC(=O)c2cc(Br)cc3c2cnn3C2CCN(C(=O)CN(C)C)CC2)c(=O)[nH]1` [Compound D-29], 300 to 1000 nM; as for `Cc1cc(C)c(CNC(=O)c2cc(C3CCN(CCCN(C)C)CC3)cc3c2cnn3C2CCCC2)c(=O)[nH]1` [Compound D-30], less than 300 nM.
Take `Cc1cc(C)c(CNC(=O)c2cc(Br)cc3c2cnn3C2CCN(C(=O)OC(C)(C)C)C2)c(=O)[nH]1` [Compound D-32]: the IC50 lay in the range of 300 to 1000 nM.
In the case of `Cc1cc(C)c(CNC(=O)c2cc(Br)cc3c2cnn3C2CCN(C(=O)C(C)(C)C)C2)c(=O)[nH]1` [Compound D-33] it was less than 300 nM.
As for `Cc1cc(C)c(CNC(=O)c2cc(Br)cc3c2cnn3C2CN(C(=O)OC(C)(C)C)C2)c(=O)[nH]1` [Compound D-34], the figure is 1000 to 3000 nM; as for `CC(=O)N1CC(n2ncc3c(C(=O)NCc4c(C)cc(C)[nH]c4=O)cc(Br)cc32)C1` [Compound D-35], 1000 to 3000 nM; as for `Cc1cc(C)c(CNC(=O)c2cc(Br)cc3c2cnn3C2CN(C(=O)C(C)(C)C)C2)c(=O)[nH]1` [Compound D-36], 1000 to 3000 nM.
Regarding `Cc1cc(C)c(CNC(=O)c2cc(C3=CCN(C(=O)C4CNC4)CC3)cc3c2cnn3C2CCCC2)c(=O)[nH]1` [Compound D-37], the IC50 is less than 300 nM.
In the case of `Cc1cc(C)c(CNC(=O)c2cc(C3=CCN(C(=O)CN(C)C)CC3)cc3c2cnn3C2CCCC2)c(=O)[nH]1` [Compound D-38] it was less than 300 nM.
